The source made the active and inactive calls.
How the values were obtained:
[1] = target: T1, RNA-binding protein pos-1 (Caenorhabditis elegans, UniProt G5EF15); test: disruptors of C. elegans POS-1 RNA interaction – biochemical, fluorescence polarization, dose response (AID 1964);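 further: purified POS-1 fused to maltose binding protein made in E. coli; potency of compounds blocking POS-1 binding to fluorescent RNA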
T1 sequence (G5EF15 whole entry): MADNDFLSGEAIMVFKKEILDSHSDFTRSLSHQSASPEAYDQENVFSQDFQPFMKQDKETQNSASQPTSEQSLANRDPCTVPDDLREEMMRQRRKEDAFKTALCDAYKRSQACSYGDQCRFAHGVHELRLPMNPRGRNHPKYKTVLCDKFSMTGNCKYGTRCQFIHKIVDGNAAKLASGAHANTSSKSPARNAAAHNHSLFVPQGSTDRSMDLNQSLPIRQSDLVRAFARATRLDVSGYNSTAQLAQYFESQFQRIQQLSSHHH

[2] = target: T2, Zinc finger protein mex-5 (Caenorhabditis elegans, UniProt Q9XUB2); test: potency of MEX-5 RNA-binding blockers – biochemical, C. elegans, fluorescence polarization, dose response (AID 1960)
T2 sequence (Q9XUB2 whole entry): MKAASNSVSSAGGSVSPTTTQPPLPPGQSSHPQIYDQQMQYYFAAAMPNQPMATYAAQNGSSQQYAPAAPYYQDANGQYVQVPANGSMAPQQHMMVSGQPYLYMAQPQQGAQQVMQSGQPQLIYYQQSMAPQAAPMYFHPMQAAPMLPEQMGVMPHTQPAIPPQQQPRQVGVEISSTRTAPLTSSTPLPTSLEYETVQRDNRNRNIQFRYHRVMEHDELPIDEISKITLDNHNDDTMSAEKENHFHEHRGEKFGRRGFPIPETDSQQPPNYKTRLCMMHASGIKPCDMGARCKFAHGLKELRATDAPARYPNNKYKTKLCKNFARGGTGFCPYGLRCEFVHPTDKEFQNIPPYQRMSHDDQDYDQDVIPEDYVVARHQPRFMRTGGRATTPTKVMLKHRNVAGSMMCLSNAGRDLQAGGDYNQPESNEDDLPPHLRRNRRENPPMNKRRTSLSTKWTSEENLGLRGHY

[3] = target: Glucose-6-phosphate 1-dehydrogenase (Homo sapiens, UniProt P11413); test: inhibition of Homo sapiens G6PD, dose series – biochemical, fluorescence, selectivity assay for P. falciparum G6PD inhibitor project, dose response (AID 504792); assay type: functional
Sequence of Glucose-6-phosphate 1-dehydrogenase (P11413 whole entry): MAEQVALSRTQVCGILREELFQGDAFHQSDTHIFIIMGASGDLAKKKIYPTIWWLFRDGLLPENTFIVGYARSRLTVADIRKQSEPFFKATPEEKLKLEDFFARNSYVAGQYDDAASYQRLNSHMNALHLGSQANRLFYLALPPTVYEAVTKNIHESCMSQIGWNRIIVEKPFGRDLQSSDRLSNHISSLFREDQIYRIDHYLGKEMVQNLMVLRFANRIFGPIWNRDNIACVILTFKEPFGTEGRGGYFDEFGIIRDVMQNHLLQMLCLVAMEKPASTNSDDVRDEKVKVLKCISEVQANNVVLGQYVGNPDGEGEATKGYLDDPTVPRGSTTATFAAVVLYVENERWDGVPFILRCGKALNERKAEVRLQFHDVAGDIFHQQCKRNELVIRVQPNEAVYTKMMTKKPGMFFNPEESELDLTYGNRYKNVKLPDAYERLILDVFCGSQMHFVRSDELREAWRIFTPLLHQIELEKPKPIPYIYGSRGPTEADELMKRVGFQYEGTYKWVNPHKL

[4] = target: T3, Heat shock factor protein 1 (Mus musculus, UniProt P38532); test: enhancement of HSF1-driven luciferase signal – cell-based, NIH3T3, luminescence, dose retest, confirmation (AID 435004); assay type: functional;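 further: stress induced by proteasome inhibitor MG132 added 30 min after compound; luciferase reporter driven by HSF1 response element in NIH3T3 cells; actives raise luminescence as potentiators of the MG132 stress response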
T3 sequence (P38532 whole entry): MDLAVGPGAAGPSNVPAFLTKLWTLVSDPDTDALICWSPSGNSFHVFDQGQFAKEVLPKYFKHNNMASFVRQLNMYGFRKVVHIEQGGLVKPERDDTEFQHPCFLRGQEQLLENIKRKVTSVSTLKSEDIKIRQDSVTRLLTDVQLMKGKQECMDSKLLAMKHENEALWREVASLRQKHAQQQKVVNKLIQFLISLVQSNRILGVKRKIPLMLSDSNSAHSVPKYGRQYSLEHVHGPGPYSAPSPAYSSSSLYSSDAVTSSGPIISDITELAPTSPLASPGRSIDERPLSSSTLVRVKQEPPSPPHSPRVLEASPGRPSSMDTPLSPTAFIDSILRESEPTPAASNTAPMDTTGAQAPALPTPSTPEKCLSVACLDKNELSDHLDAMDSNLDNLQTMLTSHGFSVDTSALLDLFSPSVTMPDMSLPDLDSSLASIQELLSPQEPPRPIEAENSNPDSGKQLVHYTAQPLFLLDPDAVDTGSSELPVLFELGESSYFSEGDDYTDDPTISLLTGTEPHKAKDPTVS

HEK293 [5] = test: inhibition of NOD1-driven NF-kB reporter – cell-based, luminescence, uHTS, primary screen (AID 1578); assay type: functional; settings: Homo sapiens
BJ [6] = test: BJ-TERT fibroblast viability loss – cell-based, RAS-independent, luminescence, dose response (AID 1933); assay type: functional; settings: Homo sapiens
HEK293 [7] = test: cells; assay type: functional, cell-based; settings: Homo sapiens
BJ [8] = test: cells; assay type: functional, cell-based; settings: Homo sapiens
HEK293 [9] = test: cells; assay type: functional, cell-based; settings: Homo sapiens; remark: listed apart in the source
HEK293 [10] = test: NOD2 signaling inhibitors in MDP-stimulated cells, cell-based, uHTS, luminescence (AID 2001); assay type: functional; settings: Homo sapiens
Prothrombin = Prothrombin (Homo sapiens, UniProt P00734); test: Thrombin 1536 HTS Dose Response Confirmation. [Related pubchem assays: 1046 (Thrombin 1536 HTS; hits were confirmed in this assay)]; assay type: functional
BJ [11] = test: BJ-TERT-LT-ST fibroblast viability loss – cell-based, RAS-independent, luminescence, dose response (AID 1935); assay type: functional; settings: Homo sapiens;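 further: BJ fibroblasts immortalized with TERT plus LT and ST oncogenes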
[12] = DRD fibroblast viability loss – cell-based, non-viral oncogenic, luminescence, dose response (AID 1934); assay type: functional; settings: Homo sapiens
Tumor necrosis factor = Tumor necrosis factor (Homo sapiens, UniProt P01375); test: analog potency on TNFa NF-kB signaling – cell-based, revised, SAR follow-up (AID 2337); assay type: functional
Sequence of Tumor necrosis factor (P01375 whole entry, the tested form may be a part): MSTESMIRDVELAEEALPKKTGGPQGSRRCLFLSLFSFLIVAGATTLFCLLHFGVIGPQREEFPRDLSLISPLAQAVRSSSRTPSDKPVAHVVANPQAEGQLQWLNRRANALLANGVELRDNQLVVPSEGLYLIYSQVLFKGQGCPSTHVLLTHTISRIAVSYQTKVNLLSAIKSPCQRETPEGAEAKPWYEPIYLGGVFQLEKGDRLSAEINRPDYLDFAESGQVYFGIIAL

[13] = target: T4, Nucleotide-binding oligomerization domain-containing protein 1 (Homo sapiens, UniProt Q9Y239); test: blockers of NOD1 pathway activity – revised, SAR follow-up (AID 2333); assay type: functional
T4 sequence (Q9Y239 whole entry): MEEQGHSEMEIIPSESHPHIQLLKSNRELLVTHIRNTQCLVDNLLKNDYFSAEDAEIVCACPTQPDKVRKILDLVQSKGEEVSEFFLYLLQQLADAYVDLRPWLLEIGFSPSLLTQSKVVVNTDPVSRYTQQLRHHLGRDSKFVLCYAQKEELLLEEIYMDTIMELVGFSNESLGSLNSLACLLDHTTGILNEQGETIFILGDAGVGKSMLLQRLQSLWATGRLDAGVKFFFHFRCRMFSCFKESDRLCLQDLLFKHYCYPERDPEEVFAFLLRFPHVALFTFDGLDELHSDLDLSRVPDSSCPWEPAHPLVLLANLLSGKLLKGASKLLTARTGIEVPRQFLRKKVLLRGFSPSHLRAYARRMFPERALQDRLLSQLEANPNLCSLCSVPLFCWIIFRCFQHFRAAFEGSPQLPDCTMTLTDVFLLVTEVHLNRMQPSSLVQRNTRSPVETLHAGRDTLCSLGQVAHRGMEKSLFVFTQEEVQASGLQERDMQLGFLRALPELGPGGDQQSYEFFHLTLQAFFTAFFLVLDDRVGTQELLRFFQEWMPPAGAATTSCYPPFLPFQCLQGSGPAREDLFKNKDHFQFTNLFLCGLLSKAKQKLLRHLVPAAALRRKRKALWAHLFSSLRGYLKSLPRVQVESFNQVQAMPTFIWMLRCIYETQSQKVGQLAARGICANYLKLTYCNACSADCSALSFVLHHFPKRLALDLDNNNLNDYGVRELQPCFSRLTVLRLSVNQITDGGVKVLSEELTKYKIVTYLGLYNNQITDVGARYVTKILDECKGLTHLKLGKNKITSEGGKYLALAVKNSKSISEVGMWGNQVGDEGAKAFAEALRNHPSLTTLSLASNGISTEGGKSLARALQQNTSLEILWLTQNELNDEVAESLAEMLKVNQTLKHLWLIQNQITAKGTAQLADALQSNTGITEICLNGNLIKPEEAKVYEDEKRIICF

BJ [14] = test: growth inhibition of engineered Ras-driven BJ cells – cell-based, alamar blue fluorescence, cherrypicked samples, dose response (AID 2631); assay type: functional; settings: Homo sapiens;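 further: confirmatory dose-response assay in RAS-dependent BJ fibroblasts engineered with TERT, LT and ST, with cytotoxicity read by fluorescence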
HEK293 [15] = test: cells; settings: Homo sapiens
[16] = decrease of insulin promoter-GFP reporter – imaging, high-content screening, mouse beta cells (AID 1628); assay type: functional; settings: MIN6
[17] = MIN6 cell viability loss – mouse insulinoma, cytotoxicity control, dose response (AID 2122); assay type: functional;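 further: confirmatory high-throughput counterscreen run to flag cytotoxic compounds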
HEK293 [18] = test: EBV LMP1 TES2 canonical NF-kB signalling blockers – cell-based, HEK293, luciferase, cherry-pick, dose response (AID 588343); assay type: functional; settings: Homo sapiens
SUMO-activating enzyme [19] = target: T5, SUMO-activating enzyme (Homo sapiens, UniProt Q9UBT2); test: blockers of UBC9-mediated SUMO conjugation – biochemical, AlphaScreen, SUMOylation inhibitor project, confirmation (AID 2018); assay type: functional
T5 sequence (Q9UBE0 whole entry): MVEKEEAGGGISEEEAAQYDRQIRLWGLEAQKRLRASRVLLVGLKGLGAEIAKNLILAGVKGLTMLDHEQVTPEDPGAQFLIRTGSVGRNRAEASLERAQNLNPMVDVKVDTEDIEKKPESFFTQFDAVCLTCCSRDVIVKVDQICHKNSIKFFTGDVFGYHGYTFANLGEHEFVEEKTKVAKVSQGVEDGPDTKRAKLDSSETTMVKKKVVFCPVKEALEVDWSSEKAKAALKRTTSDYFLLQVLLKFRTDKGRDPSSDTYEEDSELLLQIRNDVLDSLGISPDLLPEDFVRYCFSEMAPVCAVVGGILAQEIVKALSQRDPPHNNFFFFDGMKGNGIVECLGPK
T5 sequence (Q9UBT2 whole entry): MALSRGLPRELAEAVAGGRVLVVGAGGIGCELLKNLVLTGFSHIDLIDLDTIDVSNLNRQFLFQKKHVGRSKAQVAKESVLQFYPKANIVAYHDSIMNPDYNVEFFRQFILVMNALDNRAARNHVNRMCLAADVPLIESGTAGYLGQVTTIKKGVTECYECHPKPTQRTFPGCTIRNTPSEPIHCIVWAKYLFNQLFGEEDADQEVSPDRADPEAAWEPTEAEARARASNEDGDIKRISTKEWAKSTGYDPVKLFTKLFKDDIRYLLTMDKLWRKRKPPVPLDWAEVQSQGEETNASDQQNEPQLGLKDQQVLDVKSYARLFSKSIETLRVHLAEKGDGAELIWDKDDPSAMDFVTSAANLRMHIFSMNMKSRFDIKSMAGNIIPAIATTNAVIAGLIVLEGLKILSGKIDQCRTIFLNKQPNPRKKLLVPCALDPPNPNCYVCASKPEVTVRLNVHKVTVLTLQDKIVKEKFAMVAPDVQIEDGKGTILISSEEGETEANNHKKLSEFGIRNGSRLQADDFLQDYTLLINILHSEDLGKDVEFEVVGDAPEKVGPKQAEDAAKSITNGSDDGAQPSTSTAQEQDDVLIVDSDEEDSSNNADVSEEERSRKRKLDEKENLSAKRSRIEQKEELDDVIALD

Large T antigen = Large T antigen (Simian virus 40, UniProt P03070); assay type: functional, Betapolyomavirus macacae;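 further: Confirmatory-stage PubChem screen for compounds that inhibit SV40 T antigen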
Sequence of Large T antigen (P03070 whole entry): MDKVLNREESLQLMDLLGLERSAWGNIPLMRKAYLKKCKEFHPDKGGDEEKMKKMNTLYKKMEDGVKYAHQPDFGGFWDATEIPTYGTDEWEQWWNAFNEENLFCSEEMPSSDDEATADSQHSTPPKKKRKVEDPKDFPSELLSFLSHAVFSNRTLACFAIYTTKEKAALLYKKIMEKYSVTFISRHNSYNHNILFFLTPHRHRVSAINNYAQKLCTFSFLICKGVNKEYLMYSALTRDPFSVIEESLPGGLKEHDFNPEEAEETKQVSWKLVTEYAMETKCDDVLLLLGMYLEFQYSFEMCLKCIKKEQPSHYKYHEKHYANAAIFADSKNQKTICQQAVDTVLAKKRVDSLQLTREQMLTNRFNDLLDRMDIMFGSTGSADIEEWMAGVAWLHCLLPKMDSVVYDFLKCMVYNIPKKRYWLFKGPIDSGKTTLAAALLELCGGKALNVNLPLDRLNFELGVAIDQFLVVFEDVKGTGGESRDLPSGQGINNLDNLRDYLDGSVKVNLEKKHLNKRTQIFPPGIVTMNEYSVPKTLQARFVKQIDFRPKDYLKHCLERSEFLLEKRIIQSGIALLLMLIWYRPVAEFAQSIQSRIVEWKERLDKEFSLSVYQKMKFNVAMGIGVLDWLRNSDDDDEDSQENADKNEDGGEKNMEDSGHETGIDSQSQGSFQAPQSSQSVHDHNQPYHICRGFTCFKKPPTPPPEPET

SUMO-activating enzyme [20] = target: T5, SUMO-activating enzyme; test: blockers of SAE1/SAE2–UBC9 SUMO transfer – biochemical, HTRF, uHTS, primary screen (AID 2006); assay type: protein-complex assay
[21] = target: FAD-linked sulfhydryl oxidase ALR (Homo sapiens, UniProt P55789); test: ALR-catalysed DTT oxidation blockers – biochemical, H2O2 detection, luminescence, cherry-pick, dose response (AID 493248)
Sequence of FAD-linked sulfhydryl oxidase ALR (P55789 whole entry): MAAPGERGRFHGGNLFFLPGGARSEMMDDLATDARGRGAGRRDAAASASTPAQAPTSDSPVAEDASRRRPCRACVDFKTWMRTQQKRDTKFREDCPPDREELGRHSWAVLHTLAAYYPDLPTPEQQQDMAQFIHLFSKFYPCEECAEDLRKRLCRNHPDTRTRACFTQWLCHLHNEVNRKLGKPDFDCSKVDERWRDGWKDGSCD

With `Oc1ccc(C2C[C@H]3CC[C@@H]2C3)cc1O` (some centres undefined) the EC50 [1] was > 300 µM (not active), the EC50 [2] was 20.6 µM (inconclusive) and the IC50 [3] was > 80 µM (inactive). The EC50 [4] was 20 µM (active).
In the case of `Cc1cccc(Nc2nc(N)nc(CCl)n2)c1`, the EC50 (HEK293 [5]) is reported as 8.71 µM (active), the EC50 (BJ [6]) is reported as 6.83 µM (inconclusive) and the IC50 (HEK293 [7]) is reported as 9.2 µM (active). For the same molecule, the EC50 (BJ [8]) was 7.74 µM (active), the IC50 (HEK293 [9]) was > 20 µM (inactive) and the IC50 (HEK293 [10]) was 10.2 µM (inactive). For the same molecule, the IC50 (Prothrombin) was > 50 µM (not active), the EC50 (BJ [11]) was > 75 µM (inconclusive) and the EC50 [12] was 3.92 µM (active). The IC50 (Tumor necrosis factor) was > 20 µM (inactive), the IC50 [13] was 4.54 µM (active) and the EC50 (BJ [14]) was 24.4 µM (active). For the same molecule, the IC50 (HEK293 [15]) was > 20 µM (inactive).
In the case of `Cc1cccc(NC(=S)N=Nc2c(O)n(C)c3ccc(S(=O)(=O)N4CCOCC4)cc23)c1`, the IC50 [16] is reported as 6.3 µM (active), the IC50 [17] is reported as 5.04 µM (active) and the AC50 (HEK293 [18]) is reported as 0.985 µM (active).
With `Sc1nnc(-c2ccc(Cl)cc2)n1/N=C/C=C/c1ccco1` the IC50 (SUMO-activating enzyme [19]) was 7.66 µM (active), the IC50 (Large T antigen) was 69.2 µM (active) and the IC50 (SUMO-activating enzyme [20]) was 59.1 µM (active). For the same molecule, the AC50 [21] was 1.95 µM (active).
